Measurements: patent publication US20170172994A1, “COMPOSITIONS AND METHODS FOR TREATING BACTERIAL INFECTIONS” (WOCKHARDT LIMITED, priority 2013, published 2017)
Converted amounts (≈) assume the structure as drawn. Like-named read-outs stand apart in the source and are kept apart here. Blank lines part the entries; values can stand above or below the molecule they belong to.

Columns and labels:
[1] = system: MDR Klebsiella pneumoniae B 88 producing NDM, SHV & TEM beta-lactamases; assay: Time kill study at MFC and MSC; type: cell-based; conditions: for Bacterial count: Cefepime 8 mcg/ml (MFC), Compound of Formula (III) 0.12 mcg/ml (MSC), Imepenem 8 mcg/ml
Procedure: (§1) The synergistic killing effect of the combinations according to invention was studied by performing time kill studies. In a typical time kill study, the freshly grown cultures were diluted to the required cell density (initial starting inoculum) in Cation adjusted Muller Hinton broth medium (BD, USA). The antibacterial agents (either alone or in combination) at the required concentrations were added into the culture-containing medium. The samples were incubated under shaking condition (120 rpm) at 37° C. Enumeration of viable bacterial count was done every 2 hour by diluting in normal saline and plating on to the Tryptic Soya Agar plates (BD, USA). The plates were incubated for 24 hours to arrive at the viable bacterial count. The results are expressed in terms of Log CFU per ml. In general, the decrease of 1 Log CFU/ml, corresponds to 90% killing of bacteria. Similarly, 2 Log CFU/ml reductions indicates to 99% killing of bacteria and 3 Log CFU/ml reductions is equal to 99.9% killing of bacteria.

[2] = system: MDR P. mirabilis G 186 producing NDM & TEM β-lactamases; assay: Time kill study at MFC and MSC; type: cell-based; conditions: for Bacterial count: Cefepime 8 mcg/ml (MFC), Compound of Formula (III) 0.25 mcg/ml (MSC), Imepenem 8 mcg/ml
Procedure: as §1

Pseudomonas PBP 3 = target: T1, Pseudomonas PBP 3 (Pseudomonas aeruginosa, UniProt G3XD46); assay: biochemical; type: binding
T1 construct: endogenous in cells
Procedure: The phrase “selective and high affinity PBP binder” refers to a PBP binder which binds to only one PBP with very high affinity. In general, the term “selective and high affinity PBP binder” also includes those binders where a substantial fraction of binder selectively binds to only one PBP with high affinity.
The reaction mixtures were then denatured with 20 μl each of SDS-denaturing solution at 100° C. for 3 min PBPs were separated through 10% SDS polyacrylamide gel electrophoresis (Bio-Rad Laboratories, Hercules, Calif.). The protein gels were rinsed in water immediately after electrophoresis.

P. mirabilis G 186 [3] = assay: Minimum filamentation / spheroplasting concentration; conditions: Proteus mirabilis, G186
Description: (§7) The term “MSC” as used herein refers to minimum spheroplasting concentration, which is the minimum concentration of an antibacterial agent at which about 80% of bacterial cells covert into spheroplasts.
(§8) The term “MFC” as used herein refers to minimum filamentation concentration, which is the minimum concentration of an antibacterial agent at which about 80% of bacterial cells get elongated to form filament like structures.

[4] = system: Pseudomonas aeruginosa NCTC 13437 producing carbapenem hydrolyzing MBL (VIM 10) & Class A (VEB1); assay: Time kill study (viability count); type: cell-based; conditions: Cefepime 8 μg/ml, Compound of Formula (III) 8 μg/ml, Imipenem 16 μg/ml
Procedure: (§2) The antibacterial effectiveness of various antibacterial agents in presence of a compound of Formula (III) was investigated and the results are detailed below. In a typical study, overnight cultures in Trypticase soya broth (TSB) were brought to log phase by 1 in 10 dilution in fresh cation adjusted Mueller Hinton Broth (MHB) and incubation for 2.5 hours at 35° C. in orbital shaker. Log phase cultures were diluted to desired inoculums in flasks with MHB, containing various drug concentrations. Flasks were incubated at 35° C. in orbital shaker with rotational speed of 125 rpm. Viability count was determined by 1 in 10 serial dilutions of samples in normal saline and surface spreading of 10 μl of dilutions in duplicate on Trypticase soya agar plates. Plates were incubated for 24 hours at 35° C. and colonies were enumerated to determine the colony forming units (CFU) per ml volume.

[5] = system: Acinetobacter baumannii NCTC 13304 producing carbapenem hydrolyzing Class D OXA enzyme (OXA 27); assay: Time kill study (viability count); type: cell-based; conditions: Cefepime 8 μg/ml, Compound of Formula (III) 8 μg/ml, Imipenem 16 μg/ml
Procedure: as §2

Pseudomonas PBP 1A = target: T2, Pseudomonas PBP 1A (Pseudomonas aeruginosa, UniProt Q07806); assay: PBP binding assay (Bocillin FL competition)
T2 construct: endogenous in cells
Procedure: (§3) The phrase “selective and high affinity PBP binder” refers to a PBP binder which binds to only one PBP with very high affinity. In general, the term “selective and high affinity PBP binder” also includes those binders where a substantial fraction of binder selectively binds to only one PBP with high affinity. […]. The term “IC50 value” of a compound refers to the concentration of the compound that reduces the binding of Bocillin-FL to PBPs by 50% as compared to when no compound was added to the reaction.
(§4) A compound of Formula (III) was prepared using the procedure disclosed in PCT International Application No. PCT/IB2012/054290 and was evaluated for its PBP binding affinity profile. […] The reaction mixtures were then denatured with 20 μl each of SDS-denaturing solution at 100° C. for 3 min PBPs were separated through 10% SDS polyacrylamide gel electrophoresis (Bio-Rad Laboratories, Hercules, Calif.). The protein gels were rinsed in water immediately after electrophoresis. […] […].

Pseudomonas PBP 5/6 = Pseudomonas PBP 5/6 (Pseudomonas aeruginosa, UniProt G3XD74); assay: PBP binding assay (Bocillin FL competition)
Procedure: as §3, §4

K. pneumoniae B88 [6] = assay: Minimum filamentation / spheroplasting concentration; conditions: Klebsiella pneumoniae, B88
Description: as §7, §8

P. mirabilis G 186 [7] = assay: MIC determination; type: cell-based; conditions: Proteus mirabilis, G186; P. mirabilis G 186 (NDM, TEM)
Procedure: (§5) In a typical procedure for determining MIC values, overnight grown bacterial cultures were diluted appropriately and inoculated on the agar media containing doubling concentrations of the test compounds. Observation for growth or no growth was performed after 16-20 hours of incubation at 35±2° C. in ambient air. The overall procedure was performed as per Clinical and Laboratory Standards Institute (CLSI) recommendations (Clinical and Laboratory Standards Institute (CLSI), Performance Standards for Antimicrobial Susceptibility Testing, 20th Informational Supplement, M 100-S20, Volume 30, No. 1, 2010).

K. pneumoniae B88 [8] = assay: MIC determination; type: cell-based; conditions: Klebsiella pneumoniae; K. pneumoniae B88 (NDM, SHV, TEM)
Procedure: as §5

K pneumoniae J 102 = assay: MIC determination (agar dilution, CLSI); type: cell-based; conditions: K pneumoniae J 102 (TEM1, SHV5, OMP); standalone
Procedure: as §5

K pneumoniae J 105 = assay: MIC determination (agar dilution, CLSI); type: cell-based; conditions: K pneumoniae J 105 (TEM1, SHV2, CTX-M, OMP); standalone
Procedure: as §5

K pneumoniae J 101 = assay: MIC determination (agar dilution, CLSI); type: cell-based; conditions: K pneumoniae J 101 (TEM1, SHV12, OMP); standalone
Procedure: as §5

K pneumoniae J 104 = assay: MIC determination (agar dilution, CLSI); type: cell-based; conditions: K pneumoniae J 104 (TEM1, SHV11, CTX-M, OMP); standalone
Procedure: as §5

[9] = system: ESBL enzymes from K. pneumoniae S48 producing Metalo betalactamase (NDM4) and Class A (CTX-M, SHV, TEM) beta-lactamase; assay: Beta-lactamase stability study (crude enzyme extract, then drug diffusion assay on E. coli ATCC 25922); type: biochemical; conditions: for Inhibition zone diameter after treatment with beta-lactamase enzyme: 40 μg/ml, zone on E. coli ATCC 25922
Procedure: (§6) Next, the beta-lactamase stability of some of these compounds was evaluated. In a typical stability study, ESBL enzymes from K. pneumoniae S48 producing Metalo betalactamase (NDM4) and Class A (CTX-M, SHV, TEM) beta-lactamase were isolated from freshly grown culture by 5 repetitive cycles of freeze and thaw in liquid nitrogen. […] After the stipulated incubation duration, the test compounds were extracted from the reaction mixture by the addition of 0.5 ml of Acetonitrile in 1:1 ratio (final concentration of test compound—40 μg/ml) and centrifuged at 12000 rpm for 2 min to separate precipitated protein. The activity of test compounds was measured from the supernatant by performing microbiological drug diffusion assay. For drug diffusion assay, Muller-Hinton Agar (MHA) seeded with E. coli ATCC 25922 was poured on to a bioassay plate placed on a flat surface and allowed to solidify. Appropriate concentration of the standalone and enzyme treated test compound dilutions were added to 6 mm wells cut with the help of a borer. The antibacterial activity of the test compounds was measured in terms of zones of inhibition appearing after 18-24 hours of incubation at 37° C. Measurement of diameter of zone of inhibition was undertaken to the nearest whole value with the help of ruler.

E. coli ATCC 25922 = assay: Microbiological drug diffusion assay, standalone compounds in absence of beta-lactamase enzymes; type: cell-based; conditions: Escherichia coli, read-out: Inhibition zone diameter
Procedure: as §6

T2 sequence (Q07806 whole entry): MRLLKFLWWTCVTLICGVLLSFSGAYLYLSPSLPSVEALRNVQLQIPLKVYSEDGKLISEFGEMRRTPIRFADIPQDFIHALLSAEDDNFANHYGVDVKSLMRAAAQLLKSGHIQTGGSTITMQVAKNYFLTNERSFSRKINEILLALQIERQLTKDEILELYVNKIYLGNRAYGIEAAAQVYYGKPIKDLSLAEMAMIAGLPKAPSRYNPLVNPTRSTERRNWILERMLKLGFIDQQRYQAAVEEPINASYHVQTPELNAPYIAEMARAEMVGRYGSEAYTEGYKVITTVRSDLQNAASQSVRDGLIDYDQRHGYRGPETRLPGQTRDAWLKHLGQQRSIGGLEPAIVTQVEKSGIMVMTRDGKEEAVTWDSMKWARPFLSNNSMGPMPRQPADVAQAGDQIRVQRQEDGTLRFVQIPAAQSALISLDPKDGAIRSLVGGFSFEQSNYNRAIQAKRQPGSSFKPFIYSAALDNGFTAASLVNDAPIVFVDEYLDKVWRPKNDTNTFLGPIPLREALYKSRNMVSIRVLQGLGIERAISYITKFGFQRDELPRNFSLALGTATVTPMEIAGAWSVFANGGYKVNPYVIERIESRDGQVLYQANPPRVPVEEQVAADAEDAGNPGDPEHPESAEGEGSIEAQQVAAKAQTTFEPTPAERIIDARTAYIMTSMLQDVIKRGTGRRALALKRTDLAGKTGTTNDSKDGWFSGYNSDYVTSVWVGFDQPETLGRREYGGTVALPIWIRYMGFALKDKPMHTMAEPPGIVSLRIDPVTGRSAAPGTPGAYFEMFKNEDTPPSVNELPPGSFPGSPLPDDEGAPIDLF
Sequence of Pseudomonas PBP 5/6 (G3XD74 entry or part of it): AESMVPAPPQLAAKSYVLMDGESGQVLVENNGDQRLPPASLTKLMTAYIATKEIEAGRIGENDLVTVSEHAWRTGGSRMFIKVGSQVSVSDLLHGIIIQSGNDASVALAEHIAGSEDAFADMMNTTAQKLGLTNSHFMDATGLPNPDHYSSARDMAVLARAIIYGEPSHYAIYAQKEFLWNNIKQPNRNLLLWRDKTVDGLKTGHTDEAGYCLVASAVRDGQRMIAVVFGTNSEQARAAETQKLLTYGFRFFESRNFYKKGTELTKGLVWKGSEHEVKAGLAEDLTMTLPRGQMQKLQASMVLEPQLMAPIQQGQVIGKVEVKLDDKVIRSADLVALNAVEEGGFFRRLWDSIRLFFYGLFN
T1 sequence (G3XD46 whole entry): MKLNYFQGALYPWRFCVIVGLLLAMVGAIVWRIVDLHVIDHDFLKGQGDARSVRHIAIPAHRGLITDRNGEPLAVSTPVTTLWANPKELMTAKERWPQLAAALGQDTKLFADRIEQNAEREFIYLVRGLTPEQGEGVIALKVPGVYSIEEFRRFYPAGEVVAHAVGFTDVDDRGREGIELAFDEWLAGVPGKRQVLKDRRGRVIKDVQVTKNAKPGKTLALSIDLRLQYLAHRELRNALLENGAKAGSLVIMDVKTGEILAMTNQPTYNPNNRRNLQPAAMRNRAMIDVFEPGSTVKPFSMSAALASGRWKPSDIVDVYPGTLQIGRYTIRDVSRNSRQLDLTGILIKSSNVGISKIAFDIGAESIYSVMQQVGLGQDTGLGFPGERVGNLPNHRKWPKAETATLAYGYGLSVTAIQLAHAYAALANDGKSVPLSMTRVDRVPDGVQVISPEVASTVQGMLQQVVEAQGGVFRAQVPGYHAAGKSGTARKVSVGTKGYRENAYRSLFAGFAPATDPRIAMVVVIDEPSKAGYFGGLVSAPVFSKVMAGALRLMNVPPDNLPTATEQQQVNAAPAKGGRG

Compound: CO/N=C(\C(=O)N[C@@H]1C(=O)N2C(C(=O)[O-])=C(C[N+]3(C)CCCC3)CS[C@H]12)c1csc(N)n1 [Cefepime]
Bacterial count ([1]; 0 hour): 6.14 Log10 CFU/ml
Bacterial count ([1]; 2 hours): 6.65 Log10 CFU/ml
Bacterial count ([1]; 4 hours): 8.30 Log10 CFU/ml
Bacterial count ([1]; 6 hours): 9.11 Log10 CFU/ml
Bacterial count ([1]; 8 hours): 9.04 Log10 CFU/ml
Antibacterial activity (in words) ([1]; Klebsiella pneumoniae B 88, at MFC and MSC concentration, Table 13): did not exhibit antibacterial activity
Bacterial count ([2]; 0 hour): 6.58 Log10 CFU/ml
Bacterial count ([2]; 2 hours): 6.04 Log10 CFU/ml
Bacterial count ([2]; 4 hours): 7.93 Log10 CFU/ml
Bacterial count ([2]; 6 hours): 8.66 Log10 CFU/ml
Bacterial count ([2]; 8 hours): 8.85 Log10 CFU/ml
Antibacterial activity (in words) ([2]; P. mirabilis G 186, at MFC and MSC concentration, Table 14): did not exhibit antibacterial activity
IC50 (Pseudomonas PBP 3): 312 nM
MFC (P. mirabilis G 186 [3]): 8 µg/mL (≈ 16.6 µM)
Bacterial count ([4]; 0 hour): 6.0 log (CFU/ml)
Bacterial count ([4]; 2 hours): 6.49 log (CFU/ml)
Bacterial count ([4]; 4 hours): 7.74 log (CFU/ml)
Bacterial count ([4]; 6 hours): 8.02 log (CFU/ml)
Bacterial count ([4]; 12 hours): 8.8 log (CFU/ml)
Bacterial count ([5]; 0 hour): 6.3 log (CFU/ml)
Bacterial count ([5]; 2 hours): 7.3 log (CFU/ml)
Bacterial count ([5]; 4 hours): 7.5 log (CFU/ml)
Bacterial count ([5]; 6 hours): 7.8 log (CFU/ml)
Bacterial count ([5]; 8 hours): 8.0 log (CFU/ml)
IC50 (Pseudomonas PBP 1A; Pseudomonas PBP 1A, read-out: IC50 (converted)): 250 nM
IC50 (Pseudomonas PBP 5/6): > 8320 nM
MFC (K. pneumoniae B88 [6]): 8 µg/mL (≈ 16.6 µM)
MIC (P. mirabilis G 186 [7]): > 64 µg/mL
MIC (K. pneumoniae B88 [8]): > 64 µg/mL

MIC (K pneumoniae J 102): 8 µg/mL (≈ 20.9 µM)
MIC (K pneumoniae J 105): 4 µg/mL (≈ 10.4 µM)
MIC (K pneumoniae J 101): 4 µg/mL (≈ 10.4 µM)
MIC (K pneumoniae J 104): 4 µg/mL (≈ 10.4 µM)
Compound: C[C@@H](O)[C@H]1C(=O)N2C(C(=O)O)=C(S[C@@H]3CN[C@H](C(=O)N(C)C)C3)[C@H](C)[C@H]12 [Meropenem]

Compound: CC1(C)S[C@@H]2[C@H](/N=C/N3CCCCCC3)C(=O)N2[C@H]1C(=O)O [Mecillinam]
Inhibition zone diameter after treatment with beta-lactamase enzyme ([9]; 0 hour incubation at 37° C.): 15.5 mm
Inhibition zone diameter after treatment with beta-lactamase enzyme ([9]; 1 hour incubation at 37° C.): 12 mm
Inhibition zone diameter after treatment with beta-lactamase enzyme ([9]; 2 hours incubation at 37° C.): 0 mm
Inhibition zone diameter after treatment with beta-lactamase enzyme ([9]; 24 hours incubation at 37° C.): 0 mm
Stability to beta-lactamase (in words) ([9]; carbapenem hydrolyzing metallo beta-lactamase, up to 24 hours): not stable to the beta-lactamase
IC50 (Pseudomonas PBP 1A): > 12300 nM
IC50 (Pseudomonas PBP 5/6; read-out: IC50): > 12300 nM
zone of inhibition at 40 µg/mL (E. coli ATCC 25922; ATCC25922, 0 h): 15.5 mm
zone of inhibition at 40 µg/mL (E. coli ATCC 25922; ATCC25922, 1 h): 15.5 mm
zone of inhibition at 40 µg/mL (E. coli ATCC 25922; ATCC25922, 2 h): 15.5 mm
zone of inhibition at 40 µg/mL (E. coli ATCC 25922; ATCC25922, 24 h): 15.5 mm
